Measurements published in US20130022612A1, “METHODS AND COMPOSITIONS FOR MALARIA PROPHYLAXIS” (priority 2004, published 2013).

What was measured:
[1] = system: CSP processing in P. falciparum sporozoites; test: Pulse-chase metabolic labeling of CSP processing, P. falciparum sporozoites; assay type: cell-based, Plasmodium falciparum; settings: ninety minute chase
Description: P. berghei sporozoites were incubated in Dulbecco's Modified Eagle Medium (DMEM; Invitrogen, Carlsbad, Calif.) without cysteine (Cys) and methionine (Met), containing 1% BSA and […] L-[35 S]-Cys/Met (Pro-Mix, Amersham Pharmacia) in a total volume of 200 μl for one hour at 28° C. They were then washed and resuspended in DMEM/BSA containing unlabeled Cys/Met at 28° C. for the indicated time in the presence or absence of the indicated protease inhibitor. Sporozoites were then lysed and CSP was immunoprecipitated and analyzed by autoradiography as outlined below.
For experiments with P. falciparum, a 10% SDS-polyacrylamide gel was used. Gels were fixed in 25% methanol/12% acetic acid, enhanced with Amplify (Amersham Pharmacia) for 30 minutes, dried, and exposed to film.
P. berghei sporozoites were metabolically labeled in DMEM without Cys/Met, 1% BSA and 400 μCi/ml L-[^355]-Cys/Met for 1 hour at 28° C. and then kept on ice or chased at 28° C. for the indicated times. Details of this procedure are outlined in (Coppi et al., 2005). To investigate the kinetics of processing in the presence of hepatocytes, sporozoites were labeled as above, chased at 28° C. for 1 hour and then centrifuged (300×g) onto glass coverslips with Hepa 1-6 cells and incubated at 37° C. for 5, 15 or 30 minutes. […]

[2] = system: CSP cleavage in P. berghei sporozoites; test: Cell contact assay (CSP cleavage on contact with hepatocytes); assay type: cell-based, Plasmodium berghei; settings: experiment 1, no cells, visualized with α-N
Description: Hepa 1-6 cells were seeded on glass coverslips at a density of 2×10^5 cells per coverslip and grown until confluent. P. berghei sporozoites were incubated in DMEM±10 mM E-64 at 4° C. for two hours. Thirty minutes before sporozoites were added to coverslips, Cytochalasin D (CD) was added to all samples (final concentration, […]). Sporozoites were centrifuged onto coverslips (1250×g) for five minutes at 4° C. Coverslips were then brought to 37° C. for two minutes, fixed with 4% paraformaldehyde and stained with either mAb 3D11 followed by anti-mouse Ig FITC or the N-terminal antiserum (1:100) followed by anti-rabbit Ig FITC. […] As a control, sporozoites were spun onto coverslips without cells using the protocol outlined above.

P. berghei sporozoites [3] = test: Sporozoite gliding motility assay, P. berghei; assay type: cell-based, Plasmodium berghei
Description: Glass 8-chambered Lab-tek wells (Nalgene) were coated with 10 μg/ml 3D11 in PBS overnight at 25° C. and then washed three times with PBS. 2×10^4 P. berghei sporozoites were incubated with 50 μM allicin in DMEM without Cys/Met for ten minutes at 28° C., the medium removed and replaced with DMEM/3% BSA containing 50 μM or 4.2 μM allicin before sporozoites were added to the coated Lab-Tek wells. The sporozoites were incubated for one hour at 37° C., the medium was removed, and the wells were fixed with 4% paraformaldehyde, washed, blocked with PBS/1% BSA, and incubated with biotinylated 3D11 followed by Streptavidin-FITC (1:100 dilution; Amersham Pharmacia). All incubations were performed at 37° C. for one hour. Controls included untreated sporozoites and sporozoites added to wells in the presence of 1 μM cytochalasin D. For each group, gliding motility was assessed by determining the percentage of sporozoites associated with trails, and for those sporozoites with trails, counting the number of circles in each trail.

P. yoelii sporozoites [4] = settings: preincubated with 10 mM E-64
Description: Lab-Tek glass slides (model 177402, Nalgene Nunc Corp., Naperville, Il.) were coated with […] of mAb 3D11 (P. berghei) or mAbs 2F6 and NYS1 (P. yoelii) and sporozoites pre-incubated with DMEM/BSA alone or supplemented with 10 mM E-64 or CD for two hours at 28° C. were added in the continued presence of the inhibitor for one hour at 37° C. in a humidified chamber with 5% CO2. The slides were then fixed with 4% paraformaldehyde, incubated with 1:100 dilution of either biotinylated mAb 3D11 (P. berghei) or biotinylated mAb NYS1 (P. yoelii) followed by streptavidin-FITC.

P. berghei sporozoites [5] = settings: in the presence of E-64
Description: Hepa 1-6 cells were plated in 96-well tissue culture-treated plates, allowed to grow until semi-confluent, washed with DMEM without phenol red, loaded with 10 μM calcein green AM for 1 hour at 37° C. and washed 3 times. 5×10^5 sporozoites in culture medium were centrifuged onto the calcein-loaded cells, incubated for 1 hour at 37° C. and supernatants containing the released calcein were transferred to a ThermoElectron Microfluor 96-well plate. Fluorescence was read in a Labsystems Fluoroscan II using excitation and emission wavelengths of 485 nm and 538 nm, respectively. Further details are outlined in (Coppi et al., 2007).

P. yoelii sporozoites [6] = settings: sporozoites preincubated with E-64
Description: For assays with P. berghei and P. yoelii, Hepa 1-6 cells (ATCC CRL-1830, American Type Culture Collection, Manassas, Va.), a mouse hepatoma cell line permissive for P. yoelii sporozoite development (Mota, et al. (2000)) was seeded (8×10^4 cells/well) in Lab-Tek permanox chamber slides (Nalgene Nunc Corp., Naperville, II.) and grown until confluent.
For assays with P. falciparum, HepG2 cells (ATCC HB8065, American Type Culture Collection) were used. On the day of the experiment, sporozoites were pre-incubated with DMEM/BSA alone or with the indicated protease inhibitor for two hours at 28° C. and plated on cells in the continued presence of the inhibitor for one hour at 37° C.
In a control, Hepa 1-6 cells were incubated with E-64 for two hours at 37° C., the medium was removed and then untreated P. berghei sporozoites were added. The inhibitors used were: 10 mM E-64; 1 mM PMSF; 75 mM leupeptin; 0.3 mM aprotinin; 100 mM 3,4 DCl; 1 mM pepstatin. […] Cells were then permeabilized with cold methanol and stained again with mAbs 3D11, 2F6 or 2A10 followed by anti-mouse Ig conjugated to FITC. All sporozoites were FITC-positive whereas only extracellular sporozoites stained with rhodamine. The percentage of sporozoites that invaded the cells is calculated using the following equation:
%invasion=total sporozites−extracellular sporozites×100/total sporozites

[7] = Brodnitz, M. H., et al.; cited from earlier work
[8] = 50 μM allicin ten minutes, then diluted to 4.2 μM

| SMILES | effect on CSP processing [1] | percentage staining with the N-terminal antiserum [2] | average number of circles per gliding sporozoite (P. berghei sporozoites [3]; E-64 treated versus untreated sporozoites) | percentage of sporozoites that exhibited gliding motility (P. berghei sporozoites [3]; P. berghei, preincubated with 10 mM E-64) | percentage of sporozoites that exhibited gliding motility (P. yoelii sporozoites [4]) | increase in migratory activity (P. berghei sporozoites [5]) [fold] | effect on invasion by P. yoelii sporozoites (P. yoelii sporozoites [6]) | gliding motility (P. berghei sporozoites [3]; [8]) | percentage gliding and number of circles per trail versus controls (P. berghei sporozoites [3]; [8]) | gliding motility (P. berghei sporozoites [3]; kept in 50 μM allicin for the duration of the assay) | stability in vivo [7] |
| --- | --- | --- | --- | --- | --- | --- | --- | --- | --- | --- | --- |
| CC(C)C[C@H](NC(=O)[C@H]1O[C@@H]1C(=O)O)C(=O)NCCCCN=C(N)N (relative stereo) [E-64, L-trans-epoxysuccinyl-leucylamide-[4-guanido]-butane] | inhibited CSP processing | 90% ± 4.1 | not different | no effect | no effect | 4 to 5 | significantly inhibited |  |  |  |  |
| C=CCS[S+]([O-])CC=C (centres unmarked) [allicin] |  |  |  |  |  |  |  | no effect on gliding motility | the same | completely inhibited | rapid decomposition in vivo |
